Measurements taken from publication PMC6028098, “The N-terminal region of photocleavable peptides that bind HLA-DR1 determines the kinetics of fragment release” (PLoS ONE, 2018).
Read-outs that look alike come from different tables or passages of the source. Ends that are not written are not given here. Peptide text beside a SMILES is read from it.

Columns and labels:
[1] = target: T1, HLA-DR1 (DRA*01:01/DRB1*01:01) (Homo sapiens, UniProt P01903+P01911, A100R/D57E/F55L/F60I/F76Y/I96L/L162R/M171V/P40L/Q125E/R42F/V115G/Y59C); assay: biochemical; format: binding; conditions: for inhibition at 0.256 µM / inhibition at 1.28 µM / inhibition at 6.4 µM / inhibition at 32 µM / inhibition at 160 µM / inhibition at 0.000256 µM / inhibition at 0.00128 µM / inhibition at 0.0064 µM / inhibition at 0.032 µM / inhibition at 0.16 µM / inhibition at 0.8 µM / inhibition at 4 µM / inhibition at 20 µM: read-out: fraction of labeled HA binding inhibited
T1 construct: HLA-DR1 (DRA*01:01/DRB1*01:01) extracellular domain was expressed in Drosophila S2 cells; made in house

[2] = complex with DR2b, 2 minutes of UV exposure; cited from earlier work
Source text: In the only previous report in which a photocleavable peptide was used with a MHC-II protein, the complex studied was DR2b (HLA-DRB1*15:01) with a peptide derived from human myelin basic protein (MBP85-99) with the photocleavable group replacing the residue at P4 position (ENPVVHFXKNIVTPR). […] Thus in this case the peptide is cleaved efficiently and the ...

[3] = target: DR1 (Homo sapiens, UniProt P01903+P01911, A100R/D57E/F55L/F60I/F76Y/I96L/L162R/M171V/P40L/Q125E/R42F/V115G/Y59C); conditions: binding to DR1, estimated; cited from earlier work
[4] = target: HLA-DR1 (DRA*01:01/DRB1*01:01) extracellular domain (human); assay: fluorescence polarisation

CC(=O)N[C@@H](Cc1ccc(O)cc1)C(=O)N[C@H](C(=O)N[C@@H](CCCCN)C(=O)NC(CC(=O)N[C@@H](CC(N)=O)C(=O)N[C@H](C(=O)N[C@@H](CC(C)C)C(=O)N[C@@H](CCCNC(=N)N)C(=O)N[C@@H](CC(C)C)C(=O)N[C@@H](C)C(=O)N[C@H](C(=O)O)[C@@H](C)O)[C@@H](C)O)c1ccccc1[N+](=O)[O-])C(C)C (some centres unmarked) [Ac-photoHA-Δ1–2]
inhibition at 0.256 µM ([1]; 72 h): -1.47%
inhibition at 1.28 µM ([1]; 72 h): -1.61%
inhibition at 6.4 µM ([1]; 72 h): -1.21%
inhibition at 32 µM ([1]; 72 h): 3.82%
inhibition at 160 µM ([1]; 72 h): 39.8%

CC(=O)N1CCC[C@H]1C(=O)N[C@@H](CCCNC(=N)N)C(=O)N[C@@H](Cc1ccc(O)cc1)C(=O)N[C@H](C(=O)N[C@@H](CCCCN)C(=O)NC(CC(=O)N[C@@H](CC(N)=O)C(=O)N[C@H](C(=O)N[C@@H](CC(C)C)C(=O)N[C@@H](CCCNC(=N)N)C(=O)N[C@@H](CC(C)C)C(=O)N[C@@H](C)C(=O)N[C@H](C(=O)O)[C@@H](C)O)[C@@H](C)O)c1ccccc1[N+](=O)[O-])C(C)C (some centres unmarked) [Ac-photoHA]
inhibition at 0.256 µM ([1]; 72 h): -1.71%
inhibition at 1.28 µM ([1]; 72 h): -3.02%
inhibition at 6.4 µM ([1]; 72 h): -0.583%
inhibition at 32 µM ([1]; 72 h): 10%
inhibition at 160 µM ([1]; 72 h): 59%
IC50 ([1]; competition with 25 nM Alexa488-labeled HA for DR1 (100 nM per method, 150 nM per Fig 7/8 legends), 37°C, 72 h, fluorescence polarization, mean ± SD of two experiments, SD, read-out: IC50): 134 ± 2 nM

CSCC[C@H](NC(=O)[C@H](CCC(N)=O)NC(=O)[C@H](CC(C)C)NC(=O)[C@H](Cc1c[nH]cn1)NC(C)=O)C(=O)NC(CC(=O)N[C@@H](CC(N)=O)C(=O)N[C@@H](C)C(=O)N[C@@H](CC(C)C)C(=O)N[C@@H](C)C(=O)N[C@@H](CC(C)C)C(=O)O)c1ccccc1[N+](=O)[O-] (some centres unmarked) [Peptide L1MxN] (HELM PEPTIDE1{[ac].H.L.Q.M.[O=C(CC(N[*:1])c1ccccc1[N+](=O)[O-])[*:2]].N.A.L.A.L}$$$$V2.0)
inhibition at 0.000256 µM ([1]; 72 h): -0.215%
inhibition at 0.00128 µM ([1]; 72 h): -0.407%
inhibition at 0.0064 µM ([1]; 72 h): -1.67%
inhibition at 0.032 µM ([1]; 72 h): -1.44%
inhibition at 0.16 µM ([1]; 72 h): 2.63%
inhibition at 0.8 µM ([1]; 72 h): 13%
inhibition at 4 µM ([1]; 72 h): 49.4%
inhibition at 20 µM ([1]; 72 h): 86.9%
IC50 ([1]; SD): 4100 ± 298 nM

CSCC[C@H](NC(=O)[C@H](CCC(N)=O)NC(=O)[C@@H](NC(=O)[C@H](Cc1c[nH]cn1)NC(C)=O)C(C)C)C(=O)NC(CC(=O)N[C@@H](CC(N)=O)C(=O)N[C@@H](C)C(=O)N[C@@H](CC(C)C)C(=O)N[C@@H](C)C(=O)N[C@@H](CC(C)C)C(=O)O)c1ccccc1[N+](=O)[O-] (some centres unmarked) [Peptide V1MxN] (HELM PEPTIDE1{[ac].H.V.Q.M.[O=C(CC(N[*:1])c1ccccc1[N+](=O)[O-])[*:2]].N.A.L.A.L}$$$$V2.0)
inhibition at 0.000256 µM ([1]; 72 h): -0.0001%
inhibition at 0.00128 µM ([1]; 72 h): 3%
inhibition at 0.0064 µM ([1]; 72 h): 5.87%
inhibition at 0.032 µM ([1]; 72 h): 4.84%
inhibition at 0.16 µM ([1]; 72 h): 1.29%
inhibition at 0.8 µM ([1]; 72 h): 10.9%
inhibition at 4 µM ([1]; 72 h): 34.5%
inhibition at 20 µM ([1]; 72 h): 92.8%
IC50 ([1]; SD): 5400 ± 341 nM

CSCC[C@H](NC(=O)[C@H](CCC(N)=O)NC(=O)[C@H](Cc1ccc(O)cc1)NC(C)=O)C(=O)NC(CC(=O)N[C@@H](CC(N)=O)C(=O)N[C@@H](C)C(=O)N[C@@H](CC(C)C)C(=O)N[C@@H](C)C(=O)N[C@@H](CC(C)C)C(=O)O)c1ccccc1[N+](=O)[O-] (some centres unmarked) [Peptide Y1MxN] (HELM PEPTIDE1{[ac].Y.Q.M.[O=C(CC(N[*:1])c1ccccc1[N+](=O)[O-])[*:2]].N.A.L.A.L}$$$$V2.0)
inhibition at 0.000256 µM ([1]; 72 h, Fig 2, [Pep] 0.000256 uM, 100 nM DR1, 25 nM Alexa488-labeled HA, 3 days, FP, mean of two experiments in triplicate): -1.47%
inhibition at 0.00128 µM ([1]; 72 h, Fig 2, [Pep] 0.00128 uM, 100 nM DR1, 25 nM Alexa488-labeled HA, 3 days, FP, mean of two experiments in triplicate): 4.96%
inhibition at 0.0064 µM ([1]; 72 h, Fig 2, [Pep] 0.0064 uM, 100 nM DR1, 25 nM Alexa488-labeled HA, 3 days, FP, mean of two experiments in triplicate): -1.42%
inhibition at 0.032 µM ([1]; 72 h, Fig 2, [Pep] 0.032 uM, 100 nM DR1, 25 nM Alexa488-labeled HA, 3 days, FP, mean of two experiments in triplicate): 13.4%
inhibition at 0.16 µM ([1]; 72 h, Fig 2, [Pep] 0.16 uM, 100 nM DR1, 25 nM Alexa488-labeled HA, 3 days, FP, mean, n = 3): 39.7%
inhibition at 0.8 µM ([1]; 72 h, Fig 2, [Pep] 0.8 uM, 100 nM DR1, 25 nM Alexa488-labeled HA, 3 days, FP, mean of two experiments in triplicate): 69.7%
inhibition at 4 µM ([1]; 72 h, Fig 2, [Pep] 4 uM, 100 nM DR1, 25 nM Alexa488-labeled HA, 3 days, FP, mean of two experiments in triplicate): 90%
inhibition at 20 µM ([1]; 72 h, Fig 2, [Pep] 20 uM, 100 nM DR1, 25 nM Alexa488-labeled HA, 3 days, FP, mean of two experiments in triplicate): 96.1%

CC(C)C[C@H](NC(=O)[C@H](CCCNC(=N)N)NC(=O)[C@H](CC(C)C)NC(=O)[C@@H](NC(=O)[C@H](CC(N)=O)NC(=O)CC(NC(=O)[C@H](CCCCN)NC(=O)[C@@H](NC(=O)[C@@H](N)Cc1ccc(O)cc1)C(C)C)c1ccccc1[N+](=O)[O-])[C@@H](C)O)C(=O)N[C@@H](C)C(=O)N[C@H](C(=O)O)[C@@H](C)O (some centres unmarked) [photoHA-Δ1–2]
inhibition at 0.256 µM ([1]; 72 h): -1.94%
inhibition at 1.28 µM ([1]; 72 h): -1.83%
inhibition at 6.4 µM ([1]; 72 h): -1.22%
inhibition at 32 µM ([1]; 72 h): -0.549%
inhibition at 160 µM ([1]; 72 h): 9.88%

CC(C)C[C@H](NC(=O)[C@H](CCCNC(=N)N)NC(=O)[C@H](CC(C)C)NC(=O)[C@@H](NC(=O)[C@H](CC(N)=O)NC(=O)CC(NC(=O)[C@H](CCCCN)NC(=O)[C@@H](NC(=O)[C@H](Cc1ccc(O)cc1)NC(=O)[C@H](CCCNC(=N)N)NC(=O)[C@@H]1CCCN1)C(C)C)c1ccccc1[N+](=O)[O-])[C@@H](C)O)C(=O)N[C@@H](C)C(=O)N[C@H](C(=O)O)[C@@H](C)O (some centres unmarked) [photoHA]
inhibition at 0.256 µM ([1]; 72 h): -1.65%
inhibition at 1.28 µM ([1]; 72 h): -2.9%
inhibition at 6.4 µM ([1]; 72 h): -1.3%
inhibition at 32 µM ([1]; 72 h): 22.2%
inhibition at 160 µM ([1]; 72 h): 66.3%
IC50 ([1]; SD): 92 ± 2 nM

Ac-PRYVKQNTLRLAT [HA, reference compound]
inhibition at 0.0064 µM ([1]; 72 h): 7.96%
inhibition at 0.032 µM ([1]; 72 h): 48.7%
inhibition at 0.16 µM ([1]; 72 h): 70.6%
inhibition at 0.256 µM ([1]; 72 h): -1.7%
inhibition at 0.8 µM ([1]; 72 h): 95%
inhibition at 1.28 µM ([1]; 72 h): -1.55%
inhibition at 4 µM ([1]; 72 h): 99%
inhibition at 6.4 µM ([1]; 72 h): -0.259%
inhibition at 20 µM ([1]; 72 h): 104%
inhibition at 32 µM ([1]; 72 h): 29.5%
inhibition at 160 µM ([1]; 72 h): 76.5%
IC50 ([1]; competition with 25 nM Alexa488-labeled HA for DR1 (100 nM per method, 150 nM per Fig 7/8 legends), 37°C, 72 h, fluorescence polarization, mean ± SD of two experiments, read-out: IC50): 40 nM

ENPVVHFXKNIVTPR
parent peptide after UV exposure [2]: almost undetectable

HA306-318: immunodominant viral epitope from influenza virus hemagglutinin (Ac-PRYVKQNTLRLAT; not fully specified (residue 5); also: label on K5, type not given here)
Kd [3]: 13 nM

L1MxN photocleavable peptide (Ac-HLQMxNALAL)
IC50 [4]: 4100 nM

V1MxN photocleavable peptide (Ac-HVQMxNALAL)
IC50 [4]: 5400 nM

Y1MxN photocleavable peptide (Ac-YQMxNALAL)
IC50 [4]: 323 nM
